Assay [1] has as its system T24 bladder carcinoma cells. The experiment in a line: Colony formation / surviving fraction at 2 Gray in T24 cells. Type of assay: cell-based, human. The procedure:
FIG. 16B is a graph depicting colony formation following FTI-277 treatment and irradiation of human T24 bladder carcinoma cells. Cells were treated for 24 hours with 5 μM of FTI-277 and were harvested and plated at the indicated cell density in medium containing DMSO (left panel) or 5 μM FTI-277 (right panel) and were immediately irradiated. Cultures were re-fed after 24 hours with medium that contained no inhibitor. […] The cells were allowed to grow for two weeks prior to scoring for colony formation. Open squares: unirradiated cells; closed circles: 2 Gray irradiated cells. The surviving fraction of cells was calculated as described in the description of FIG. 14B. The correlation coefficient for linear regression analysis (r^2) was greater than 0.95 in all cases.
In view of the fact that accumulation of unfarnesylated H-ras in T24 cells takes longer, these cells were pretreated for 24 hours prior to irradiation and subsequent assay for clonogenic survival. An additional consideration raised by pretreatment of cells is that FTI-277 and other farnesyltransferase inhibitors can affect the farnesylation of rho proteins involved in cell morphology and thus alter cell adherence. The pretreatment of T24 cells with FTI-277 reduced the ability of these cells to form discrete colonies after replating, resulting in the formation of secondary satellite colonies. […]

The subject of assay [2] is murine prostate tumor cells cultured from a metastic lung nodule. Kind of assay: Surviving fraction at 2 Gray, murine prostate tumor cells. Type of assay: cell-based, mouse. To be noted: 5 μM FTI-277. The procedure: FIG. 14C is a series of graphs depicting the effect of 5 μM FTI-277 and 2 Gray irradiation on murine prostate tumor cells cultured from a metastic lung nodule. Cells were referred at 24 hours following irradiation in order to dilute the concentration of the inhibitor to 0.5 μM. The surviving cell fraction was assessed as described in FIG. 14B. The correlation coefficient for linear regression analysis (r^2) was greater than 0.95 in all cases.

The test system of assay [3] is H-ras. The experiment in a line: H-ras prenylation in human colon carcinomas grown in nude mice. It is filed as in vivo, mouse. As to conditions: SW480 and LoVo tumors in nude mice, two intraperitoneal injections of 50 mg/kg. The procedure: Expression of H-ras was detected by Western blot analysis using anti-H-ras monoclonal antibody of lysates of the human colon adenocarcinomas, SW480 and LoVo, grown in nude mice. Lysates were obtained from tumors excised from a vehicle (DMSO) treated mouse (Lane 1) and mice treated twice with intraperitoneal injections of 50 mg/kg of FTI-277 18 hours after treatment was initiated (Lanes 2 and 3). Lane 1 and 2: SW480, Lane 3: LoVo. The arrow denotes the migration of unfarnesylated H-ras.
To examine the effectiveness of prenylation inhibitors in vivo in an animals, both rodent and human tumor responses to these inhibitors were examined in tumor grafts growing on nude mice. The protocols described in Hoffinan (1992, Curr, Perspect. on Molec. & Cell. Oncol. 1:311-326) were followed to establish and grow tumors in nude mice.
To perform the assay, tumors were implanted and allowed to grow to approximately 125 mm^3. Mice having these tumors were then administered 50 mg/kg FTI-277 by intraperitoneal injection. Controls included mice which were injected with an equal volume of drug-free carrier solution. Two injections were given to each mouse, one at 18 hours and a second at 5 hours prior to sacrificing each mouse. The tumor ras prenylation status of the mice was subsequently assessed as described herein.

For a further assay, the system named is H-ras^v12. Kind of assay: Western blot of H-ras farnesylation in H-ras transformed REF cells (3.7, 4R, 5R). Type of assay: cell-based, rat. The text has this:
(§1) The oncogene-transfected cells used in this study were all derived from early passage rat embryo fibroblast (REF) by transfection with the pEJ plasmid containing the H-ras gene isolated from the EJ bladder carcinoma. This vector was introduced by calcium phosphate DNA transfer into primary REF, either alone or together with the pMC29 vector containing v-myc. One clone containing both the introduced H-ras gene and the v-myc genes is 3.7 (McKenna et al., 1990, Cancer Res. 50:97-102). 4R and 5R cells were obtained as rare transformants after transfection with the pEJ plasmid alone (McKenna et al., 1993, supra). MR4 cells were immortalized by transfection with an expression vector comprising v-myc linked to a neomycin-resistant selectable marker (McKenna et al., 1991, Radiat. Res. 125:283-287). REF-GG cells were obtained by transforming REF cells with a chimeric H-ras(v12) in which the CAAX motif is CVLL. All cell lines were mycoplasma free.
(§2) Cells were lysed in culture dishes with 1 x reducing Laemmli sample buffer. Samples were boiled, sheared and clarified by centrifugation at 14,000 rpm in a microfuge before storage at −20° C. Samples containing equal amounts of protein were separated on a 12% SDS polyacrylamide gel and electrophoretically transferred to nitrocellulose membranes. Membranes were blocked for 1-2 hours in PBS containing 0.1% Tween-20 and 5% powdered milk before antibody addition. Membranes were probed with monoclonal pan-ras antibody AB-4 (Oncogene Science, Uniondale, N.Y.) at a concentration of 0.5 μg/ml, or with monoclonal H-ras antibody LA069 (1:5000 dilution; Quality Biotech, Camden, N.J.). Detection of protein was accomplished using the ECL chemiluminescence kit (Amersham, Arlington Heights, Ill.). Images were digitized using an Arcus II scanner, and figures were assembled using Adobe Photoshop 3.0.
Transformed REF cells derived from the R5 cell line were treated with 5 μm FTI-277 to establish a time course for the accumulation of unfarnesylated H-ras. Prenylated forms of ras migrate more rapidly than unprenylated ras on SDSpolyacrylamide gels (Gutierrez et al., 1989, EMBO J. 8:1093-1098; Farh et al., 1995, Arch. Biochem. Biophys. 18:113-121). This shift in motility was used to assess the prenylation status of H-ras after farnesyltransferase inhibitor treatment.
For orientation: Immunoblotting shows a protein as a band on a membrane.

For assay [4], the system named is H-ras. The experiment in a line: Western blot of ras farnesylation in mouse prostate tumor cells. Type of assay: cell-based. To be noted: primary tumor cells or metastatic clone, 24 hours. How it is done:
FIG. 13A is an image of a Western blot depicting the effects of FTI-277 on ras farnesylation in cultured cells derived from a primary and a metastatic tumor following 24 hours of treatment with the inhibitor at the indicated concentrations. Mouse prostate tumor cells transformed with H-ras^v12 and myc oncogenes were treated with the indicated doses (μM) of FTI-277. After 24 hours, samples were harvested for Western blot analysis using an anti-H-ras antibody. The upper band (arrow) corresponds to unfarnesylated H-ras. C denotes controls.
as §2, with “Images were digitized using an Arcus II scanner, and figures were assembled using Adobe Photoshop 3.0.” left out

Another assay deals with wild type c-H-ras. Kind of assay: Western blot of ras farnesylation in untransformed REF and MR4 cells. It is filed as cell-based, rat.
Text: as §1, §2

Turning to `COC(=O)[C@H](CCSC)NC(=O)c1ccc(NC[C@@H](N)CS)cc1-c1ccccc1` [FTI-277], in assay [1] (5 μM, 24 hours pretreatment), the “surviving fraction at 2 Gray irradiation” value is given as 0.35. Also, the “colony formation without irradiation” value in assay [1] (FTI-277 treatment alone) is reported as “did not significantly reduce the fraction of wells giving rise to colonies”. Besides, the “survival after 2 Gray irradiation” value in assay [2] worked out at 0.36. For the same molecule, the “H-ras migration in tumors” value in the assay with H-ras [3] is “altered H-ras migration”. For the same molecule, the H-ras farnesylation status entry in the assay with H-ras^v12 (3.7, 4R and 5R cells, 2.5 to 10 μm, 24 hours) is “primarily unfarnesylated”; in the assay on wild type c-H-ras (untransformed REF, doses of up to 30 μM) it was “majority of the H-ras remained in the farnesylated form”. Besides, in the assay on H-ras^v12 (3.7 cells, 5 μm for 30 hours, then removed), the “time by which detectable farnesylated H-ras was observed after removal of inhibitor” value is at most 2 h. Further, in the assay on H-ras^v12 (3.7 cells, 6 hours after removal), the “H-ras in the farnesylated form after removal of inhibitor” value is listed as “about 50%”. In addition, in the assay with H-ras^v12 (3.7 cells, 24 hours after removal), the “form of H-ras after removal of inhibitor” value is reported as “majority of the H-ras in the cells was in the farnesylated form”. In addition, in the assay on H-ras^v12 (5R cells, 5 μm FTI-277), the “time by which conversion of H-ras to the slower moving form was observed” value was at most 4 h. Besides, in the assay with H-ras^v12 (5R cells, 5 μm FTI-277, 6-8 hours after addition), the “detectable H-ras in the unfarnesylated form” value was “approximately 50%”. Moreover, the “time to reversal of accumulation of unfarnesylated H-ras after removal of inhibitor” value in the assay on H-ras^v12 (H-ras transformed REF cells) was at most 24 h. For the same molecule, in the assay with H-ras [4], the H-ras farnesylation result is reported as “dose-dependent reduction of the farnesylated form”. Further, the migration of ras result with wild type c-H-ras (MR4 cells, up to 10 μm, pan-ras antibody) is “no changes in the migration of ras”.
